Patent US7582652B2, “Kinase inhibitors” (Eli Lilly and Company, priority 2004, dated 2009)

Test system: TNF-α production in mouse peritoneal macrophages
Assay: Inhibition of TNF-α in vitro (mouse peritoneal macrophages, LPS/interferon-γ, Luminex)
Type: cell-based
Settings: suppression of TNF-α; macrophages treated with 50 ng/mL LPS and 10 U/mL interferon-γ for 18 h
Procedure: Mouse Peritoneal Macrophages
1 mL thioglycolate broth (5.0 g yeast extract, 15.0 g casitone or trypticase, 5.0 g dextrose, 2.5 g sodium chloride, 0.75 g L-cystine, 0.5 g sodium thioglycolate, 1.0 mg resazurin, and 0.75 g agar in 1.0 L distilled water) is injected into the peritoneal cavity of Balb/C female mice. At day 4 or 5 post-injection the mice are sacrificed and then injected i.p. with 4 mL RPMI-1640 medium (BioWhittaker) and the peritoneal macrophages are withdrawn by syringe.
Mouse peritoneal microphages are counted with a hemocytometer and adjusted to 5×10^5 cells/well in 96-well plates in RPMI-1640 medium with 10% fetal bovine serum. 200 μL/well is plated in 96-well plates and the cells allowed to settle and adhere to the bottom of the well for at least 3 h. The test compound or standard p38 kinase inhibitor is pre-treated using a series of 8 concentrations for 1 h at 37° C. (20 μL/well). The cells are treated with a mixture of 50 ng/mL lipopolysaccharide (LPS) and 10 U/mL interferon-γ for 18 h at 37° C. (20 μL/well). The conditioned media is harvested and assayed for TNF-α production using the Luminex procedure.
TNF-α/Luminex Detection Assay (Bio-Rad Bio-Plex Kit—Catalog #171-G12221)
The lyophilized premixed TNF-α standard (1 standard tube/two 96-well plates) is reconstituted with 50 μL sterile water (500,000 pg/mL). The samples are vortexed for 5 seconds, incubated on ice for 30 min, and vortexed for 5 seconds before use. A set of twelve 1.5 mL tubes are labeled with #1-thru #12 and then the amounts of cell media shown below added to the appropriate tubes (standard concentrations are as follows: 50,000; 25,000; 12,500; 6,250; 3,125; 1,562.5; 781.3; 390.6; 195.3; 97.7; 48.8; and 24.4 pg/mL). The premixed anti-cytokine conjugated beads are vortexed (25×) vigorously for 30 seconds. The anti-cytokine conjugated beads are diluted to a 1× concentration using 1× Bio-Plex Assay Buffer. For every plate, 240 μL of the pre-mixed beads is added to 5760 μL of Bio-Plex Assay Buffer. A Millipore 96-well filter plate is blocked with 100 μL/well of blocking buffer. The blocking buffer is filtered through using a Millipore filtration system and then toweled dry. 2 washes are performed on the filter plate with 100 μL/well of Bio-Plex Assay Buffer and toweled dry. The 1× anti-cytokine conjugated beads are vortexed for 15 seconds and added 50 μL to each well. This is filtered through and toweled dry. 2 washes are performed on plates with 100 μl/well of Bio-Plex Wash Buffer. Again, it is filtered through and toweled dry. 50 μL of sample or standard is added to each sample well. This is incubated for 60 seconds at RT on a shaker protected from light at setting 6 and then for 30 min at setting 3 and then placed in the refrigerator overnight. 3 washes are performed with Bio-Plex Wash Buffer. Filter through and toweled dry. The cytokine detection antibody is prepared (˜10 min prior to use) for every plate and 60 μL of the premixed cytokine detection antibody stock is added to 5940 μL of Bio-Plex Detection Antibody Diluent. 50 μL of cytokine detection antibody is added and incubated for 60 seconds at RT on a shaker protected from light at setting 6 and then for 30 min at setting 3.3 washes are performed with the Bio-Plex Wash Buffer. This is filtered through and toweled dry. Strept-PE (˜10 minutes prior to use) is prepared for every plate and 60 μL to 5940 μL of Bio-Plex Assay Buffer added. 50 μL of Streptavidin-PE is added to each well and incubated for 60 seconds at RT on a shaker protected from light at setting 6 and then for 10 min at setting 3. 3 washes are performed with Bio-Plex Wash-Buffer. This is filtered through. The beads are re-suspended in 100 μL/well of Bio-Plex Assay Buffer. Standards and samples are read on a Luminex machine. […]

- IC50: 6.3 nM
Structure (SMILES): CC(C)(C)Cn1c(N)nc2ccc(-c3nc(C(C)(C)C)[nH]c3-c3ccc(F)cc3)nc21.CS(=O)(=O)O.CS(=O)(=O)O [EXAMPLE 104, Crystalline 5-[2-tert-Butyl-5-(4-fluoro-phenyl)-1H-imidazol-4-yl]-3-(2,2-dimethyl-propyl)-3H-imidazo[4,5-b]pyridin-2-ylamine dimethanesulfonate]
